According to patent publication US11141452B2, “Bifunctional compounds for relief of pain comprising an opioid receptor agonist moiety and a NK1 receptor antagonist moiety and methods for treating pain” (THE ARIZONA BOARD OF REGENTS ON BEHALF OF THE UNIVERSITY OF …, priority 2014, dated 2021):
Several values for one entry are separate records, joined by “and”; a condition that tells them apart may be missing. Equal values may be shown once. Read-outs that look alike come from different tables or passages of the source. Non-standard residues stand in square brackets, D forms with d. Residues, ends and D or L forms follow the SMILES beside them. *: point of attachment. NH(3,5-(CF3)2-benzyl) = FC(F)(F)c1cc(CN*)cc(C(F)(F)F)c1; NMeBn(3,5-(CF3)2) = CN(Cc1cc(C(F)(F)F)cc(C(F)(F)F)c1)*

Columns and labels:
MOR [1] = test: Radioligand binding assay at μ opioid receptor; conditions: for Log[IC50±] (μ): log IC50 ± error
Protocol: Binding affinities of these ligands were measured on radioligand binding assays. […] ([43]).

DOR = biological target: T1, DOR (Mus musculus, UniProt P32300); test: Mouse isolated vas deferens (MVD) functional assay; type: cell-based
T1 construct: Male ICR mice under CO2 anesthesia were sacrificed by cervical dislocation and the vasa differentia removed; from tissue; host or cells: mouse vas deferens (ICR mice)
T1 sequence (P32300 whole entry): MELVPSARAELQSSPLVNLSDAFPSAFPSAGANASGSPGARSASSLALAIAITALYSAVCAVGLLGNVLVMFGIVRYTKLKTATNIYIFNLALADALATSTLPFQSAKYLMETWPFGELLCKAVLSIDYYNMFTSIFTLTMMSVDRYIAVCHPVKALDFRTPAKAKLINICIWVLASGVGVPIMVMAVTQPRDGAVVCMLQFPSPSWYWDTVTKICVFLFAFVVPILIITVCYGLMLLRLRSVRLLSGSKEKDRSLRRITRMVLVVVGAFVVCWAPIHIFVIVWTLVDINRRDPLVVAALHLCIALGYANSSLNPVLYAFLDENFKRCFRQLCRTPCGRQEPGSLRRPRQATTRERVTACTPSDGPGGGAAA

MOR [2] = test: Guinea pig isolated ileum (GPI) functional assay; type: cell-based; conditions: for IC50: agonist activity, electrically stimulated tissue, read-out: GPI (MOR) IC50
NK1R = biological target: T2, NK1R (Cavia porcellus, UniProt P30547); test: GPI/LMMP functional assay at NK1R (agonist and antagonist testing); type: cell-based, guinea pig; conditions: for Kb: antagonist activity; for GPI/LMMP (NK1R) Agonist: agonist activity at the concentration in the cell
T2 construct: The longitudinal muscle with myenteric plexus (LMMP) was carefully separated from the circular muscle; from tissue; host or cells: guinea pig ileum longitudinal muscle with myenteric plexus
T2 sequence (P30547 whole entry): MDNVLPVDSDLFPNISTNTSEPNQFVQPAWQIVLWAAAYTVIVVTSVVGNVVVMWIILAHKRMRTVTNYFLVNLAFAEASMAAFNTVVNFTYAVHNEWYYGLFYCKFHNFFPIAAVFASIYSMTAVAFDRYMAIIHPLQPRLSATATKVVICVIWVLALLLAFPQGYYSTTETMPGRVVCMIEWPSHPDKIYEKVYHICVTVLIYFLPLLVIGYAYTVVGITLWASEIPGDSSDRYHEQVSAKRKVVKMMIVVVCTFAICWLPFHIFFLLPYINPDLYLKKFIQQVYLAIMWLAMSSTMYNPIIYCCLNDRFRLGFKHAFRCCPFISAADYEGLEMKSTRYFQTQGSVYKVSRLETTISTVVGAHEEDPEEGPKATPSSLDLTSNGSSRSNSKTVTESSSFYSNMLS

hNK1 = biological target: T3, hNK1 (Homo sapiens, UniProt P25103); test: hNK1/CHO cell membrane radioligand binding assay ([3H]SP); conditions: ratio human/rat NK1
T3 construct: expressed in transfected cells; host or cells: CHO
T3 sequence (P25103 whole entry): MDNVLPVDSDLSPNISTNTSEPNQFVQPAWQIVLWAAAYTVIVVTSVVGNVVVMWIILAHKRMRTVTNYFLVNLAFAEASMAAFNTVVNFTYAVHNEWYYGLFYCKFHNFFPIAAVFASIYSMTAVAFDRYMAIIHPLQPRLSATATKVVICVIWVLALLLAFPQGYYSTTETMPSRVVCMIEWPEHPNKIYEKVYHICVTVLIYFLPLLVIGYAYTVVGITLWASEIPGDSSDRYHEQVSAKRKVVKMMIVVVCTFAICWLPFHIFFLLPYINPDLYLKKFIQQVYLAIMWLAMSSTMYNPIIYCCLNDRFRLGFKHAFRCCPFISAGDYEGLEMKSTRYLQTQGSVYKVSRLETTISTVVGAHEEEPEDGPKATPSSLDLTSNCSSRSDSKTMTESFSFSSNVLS

[3] = read-out: GPI/LMMP (NK1R) Ke (nM) ± S.E.M.

| Structure (SMILES) | Ki (MOR [1]) | Log[IC50±] (μ) (MOR [1]) | higher agonist activity at DOR compared to MOR (functional assays) (DOR) | IC50 (MOR [2]) | Kb (NK1R; [3]) | IC50 (DOR; MVD (DOR) IC50 (nM), agonist activity, electrically stimulated tissue) | GPI/MVD IC50 ratio (MOR [2]) | Ki^hNK1/Ki^rNK1 (hNK1) | GPI/LMMP (NK1R) Agonist (NK1R) | Kb (NK1R; GPI/LMMP (NK1R) Ke (nM) ± S.E.M.) | GPI (MOR) % at 1 uM (MOR [2]; at 1 uM) | Ki^μ/Ki^δ (MOR [1]; ratio of binding affinities MOR/DOR) |
| --- | --- | --- | --- | --- | --- | --- | --- | --- | --- | --- | --- | --- |
| CC(C)C[C@H](NC(=O)[C@@H]1CCCN1C(=O)[C@H](Cc1ccc(O)cc1)NC(=O)CNC(=O)[C@H](Cc1ccccc1)NC(=O)[C@@H](C)NC(=O)[C@@H](N)Cc1ccc(O)cc1)C(=O)N[C@@H](Cc1c[nH]c2ccccc12)C(=O)NCc1cc(C(F)(F)F)cc(C(F)(F)F)c1 [AKG114] (H-Y[dA]FGYPLW-{NH(3,5-(CF3)2-benzyl)}) | 4 nM | −8.02 ± 0.04 | 4 times | 110 nM and 112 nM | 15 nM |  |  |  |  |  |  |  |
| CC(C)C[C@H](NC(=O)[C@@H]1CCCN1C(=O)[C@H](Cc1ccccc1)N(C)C(=O)CNC(=O)[C@@H](C)NC(=O)[C@@H](N)Cc1ccc(O)cc1)C(=O)N[C@@H](Cc1c[nH]c2ccccc12)C(=O)NCc1cc(C(F)(F)F)cc(C(F)(F)F)c1 [AKG117, H-Tyr-D-Ala-Gly-NMePhe-Pro-Leu-Trp-NH-Bn(3′,5′-(CF3)2)] |  | −7.05 ± 0.04 |  | 230 nM and 232 nM |  | 100 nM |  |  |  |  |  |  |
| CC(C)C[C@H](NC(=O)[C@@H]1CCCN1C(=O)CCNC(=O)[C@H](Cc1ccccc1)N(C)C(=O)CNC(=O)[C@@H](C)NC(=O)[C@@H](N)Cc1ccc(O)cc1)C(=O)N[C@@H](Cc1c[nH]c2ccccc12)C(=O)NCc1cc(C(F)(F)F)cc(C(F)(F)F)c1 [AKG119, H-Tyr-D-Ala-Gly-NMePhe-β-Ala-Pro-Leu-Trp-NH-Bn(3′,5′-(CF3)2)] | 8 nM | −7.76 ± 0.11 |  | 365 ± 186 nM |  |  | 10/1 | 1/32 | None at 100 nM |  |  |  |
| CC(C)C[C@H](NC(=O)[C@@H]1CCCN1C(=O)Cc1ccc(CNC(=O)[C@H](Cc2ccccc2)N(C)C(=O)CNC(=O)[C@@H](C)NC(=O)[C@@H](N)Cc2ccc(O)cc2)cc1)C(=O)N[C@@H](Cc1c[nH]c2ccccc12)C(=O)NCc1cc(C(F)(F)F)cc(C(F)(F)F)c1 [AKG178, H-Tyr-D-Ala-Gly-NMePhe-4-Ampa-Pro-Leu-Trp-NH-Bn(3′,5′-(CF3)2)] |  |  | 15 times | 650 nM and 654 nM | 76 nM |  | 15/1 | 1/21 | None at 300 nM |  |  |  |
| Cc1cc(O)cc(C)c1C[C@H](N)C(=O)N[C@H](C)C(=O)NCC(=O)N[C@@H](Cc1ccc(Br)cc1)C(=O)N1CCC[C@H]1C(=O)N[C@@H](CC(C)C)C(=O)N[C@@H](Cc1c[nH]c2ccccc12)C(=O)NCc1cc(C(F)(F)F)cc(C(F)(F)F)c1 [AKG192, H-Dmt-D-Ala-Gly-Phe(4-Br)-Pro-Leu-Trp-NH-Bn(3′,5′-(CF3)2)] | 5 nM | −7.96 ± 0.12 |  | 463 ± 114 nM |  |  |  |  |  | 23.4 ± 8.9 nM |  |  |
| Cc1cc(O)cc(C)c1C[C@H](N)C(=O)N[C@H](C)C(=O)NCC(=O)N[C@@H](Cc1ccc(I)cc1)C(=O)N1CCC[C@H]1C(=O)N[C@@H](CC(C)C)C(=O)N[C@@H](Cc1c[nH]c2ccccc12)C(=O)NCc1cc(C(F)(F)F)cc(C(F)(F)F)c1 [AKG193, H-Dmt-D-Ala-Gly-Phe(4-I)-Pro-Leu-Trp-NH-Bn(3′,5′-(CF3)2)] | 6 nM | −7.88 ± 0.07 |  |  |  |  |  |  |  |  | 41% at 1 uM |  |
| CC(C)C[C@H](NC(=O)[C@@H]1CCCN1C(=O)[C@H](Cc1ccc(O)cc1)NC(=O)CNC(=O)[C@H](Cc1ccccc1)NC(=O)[C@@H](C)NC(=O)[C@@H](N)Cc1ccc(O)cc1)C(=O)N[C@@H](Cc1c[nH]c2ccccc12)C(=O)N(C)Cc1cc(C(F)(F)F)cc(C(F)(F)F)c1 [QXP04] (H-Y[dA]FGYPLW-{NMeBn(3,5-(CF3)2)}) | 10 nM | −7.66 ± 0.05 |  | 389 ± 180 nM |  |  | 23/1 |  | None at 1 uM |  |  | 1/7 |
